Data reported in PubChem BioAssay (NCI).
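Assay format: 96-well plates, 48-hour exposure. TGI denotes the concentration required for complete inhibition of growth.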

Columns and labels:
Experiment in all cases: DTP human tumour cell line panel, 48 h
[1] = system: U251 CNS
[2] = system: HOP-62 NSCLC
[3] = system: HCT-15 colon
[4] = system: CCRF-CEM leukemia
[5] = system: SF-295 CNS
[6] = system: MDA-MB-231 breast
[7] = system: BT-549 breast
[8] = system: SNB-19 CNS
[9] = system: COLO 205 colon
[10] = system: OVCAR-8 ovarian
[11] = system: HT29 colon
[12] = system: SK-MEL-2 melanoma
[13] = system: M14 melanoma
[14] = system: HS 578T breast
[15] = system: ACHN renal
[16] = system: EKVX NSCLC
[17] = system: NCI-H460 lung
[18] = system: SK-MEL-28 melanoma
[19] = system: SK-MEL-5 melanoma
[20] = system: LOX IMVI melanoma
[21] = system: TK-10 renal
[22] = system: UACC-62 melanoma
[23] = system: MCF7 breast
[24] = system: SR leukemia
[25] = system: T-47D breast
[26] = system: SF-539 CNS
[27] = system: HL-60(TB) leukemia
[28] = system: HCT-116 colon
[29] = system: 786-0 renal
[30] = system: OVCAR-4 ovarian
[31] = system: MALME-3M melanoma
[32] = system: UACC-257 melanoma
[33] = system: RXF 393 renal
[34] = system: SF-268 CNS
[35] = system: K-562 leukemia
[36] = system: NCI-H522 lung
[37] = system: SK-OV-3 ovarian
[38] = system: HOP-92 NSCLC
[39] = system: OVCAR-3 ovarian
[40] = system: NCI-H226 lung
[41] = system: SNB-75 CNS
[42] = system: SW-620 colon
[43] = system: UO-31 renal
[44] = system: CAKI-1 renal
[45] = system: A549 NSCLC
[46] = system: IGROV1 ovarian
[47] = system: NCI/ADR-RES ovarian
[48] = system: OVCAR-5 ovarian
[49] = system: PC-3 prostate
[50] = system: KM12 colon
[51] = system: NCI-H23 lung
[52] = system: RPMI-8226 leukemia
[53] = system: MDA-MB-435
[54] = system: MOLT-4 leukemia
[55] = system: A498 renal
[56] = system: DU-145 prostate
[57] = system: MDA-N
[58] = system: SN12C renal
[59] = system: HCC-2998 colon

Question: How did the TGI [1] turn out when `COc1cccc2c1C(=O)c1ccc3cc(CO)cc(O)c3c1C2=O` was run?
Answer: The TGI was 5.41 µM.

Question: And the TGI [2]?
Answer: The TGI was 6.33 µM.

Question: And the TGI [3]?
Answer: Its TGI is 1.17 µM.

Question: And the TGI [4]?
Answer: Its TGI is 2.02 µM.

Question: What about the TGI [5] of the same compound?
Answer: The TGI was 7.44 µM.

Question: And the TGI [6]?
Answer: The TGI was 2.58 µM.

Question: What about the TGI [7] of the same compound?
Answer: Its TGI is 6.31 µM.

Question: What about the TGI [8] of the same compound?
Answer: The TGI was 5.85 µM.

Question: And the TGI [9]?
Answer: Its TGI is 3.32 µM.

Question: And the TGI [10]?
Answer: Its TGI is 2.22 µM.

Question: And the TGI [11]?
Answer: Its TGI is 3.9 µM.

Question: What about the TGI [12] of the same compound?
Answer: The TGI was 2.99 µM.

Question: What about the TGI [13] of the same compound?
Answer: Its TGI is 1.68 µM.

Question: And the TGI [14]?
Answer: Its TGI is 9.59 µM.

Question: What about the TGI [15] of the same compound?
Answer: Its TGI is 3.7 µM.

Question: What about the TGI [16] of the same compound?
Answer: Its TGI is 4.89 µM.

Question: And the TGI [17]?
Answer: Its TGI is 1.17 µM.

Question: And the TGI [18]?
Answer: The TGI was 5.61 µM.

Question: What about the TGI [19] of the same compound?
Answer: The TGI was 0.508 µM.

Question: What about the TGI [20] of the same compound?
Answer: Its TGI is 5.96 µM.

Question: And the TGI [21]?
Answer: The TGI was 8.43 µM.

Question: What about the TGI [22] of the same compound?
Answer: The TGI was 1 µM.

Question: What about the TGI [23] of the same compound?
Answer: The TGI was 1.56 µM.

Question: What about the TGI [24] of the same compound?
Answer: Its TGI is 1.31 µM.

Question: What about the TGI [25] of the same compound?
Answer: The TGI was 4.96 µM.

Question: What about the TGI [26] of the same compound?
Answer: Its TGI is 1.44 µM.

Question: And the TGI [27]?
Answer: The TGI was 0.461 µM.

Question: And the TGI [28]?
Answer: The TGI was 0.787 µM.

Question: What about the TGI [29] of the same compound?
Answer: The TGI was 4.24 µM.

Question: What about the TGI [30] of the same compound?
Answer: The TGI was 2.03 µM.

Question: What about the TGI [31] of the same compound?
Answer: The TGI was 0.202 µM.

Question: What about the TGI [32] of the same compound?
Answer: The TGI was 0.412 µM.

Question: What about the TGI [33] of the same compound?
Answer: Its TGI is 7.09 µM.

Question: And the TGI [34]?
Answer: Its TGI is 5.18 µM.

Question: What about the TGI [35] of the same compound?
Answer: Its TGI is 3.74 µM.

Question: And the TGI [36]?
Answer: Its TGI is 5.89 µM.

Question: And the TGI [37]?
Answer: Its TGI is 8.61 µM.

Question: And the TGI [38]?
Answer: The TGI was 2.84 µM.

Question: What about the TGI [39] of the same compound?
Answer: Its TGI is 0.497 µM.

Question: And the TGI [40]?
Answer: Its TGI is 5.54 µM.

Question: And the TGI [41]?
Answer: Its TGI is 9.4 µM.

Question: And the TGI [42]?
Answer: Its TGI is 1.2 µM.

Question: What about the TGI [43] of the same compound?
Answer: Its TGI is 7.32 µM.

Question: And the TGI [44]?
Answer: The TGI was 7.18 µM.

Question: And the TGI [45]?
Answer: The TGI was 2.76 µM.

Question: What about the TGI [46] of the same compound?
Answer: The TGI was 3.33 µM.

Question: What about the TGI [47] of the same compound?
Answer: Its TGI is 2.28 µM.

Question: And the TGI [48]?
Answer: The TGI was 3.92 µM.

Question: What about the TGI [49] of the same compound?
Answer: Its TGI is 1.17 µM.

Question: What about the TGI [50] of the same compound?
Answer: Its TGI is 6.14 µM.

Question: What about the TGI [51] of the same compound?
Answer: The TGI was 1.18 µM.

Question: And the TGI [52]?
Answer: Its TGI is 5.1 µM.

Question: What about the TGI [53] of the same compound?
Answer: Its TGI is 0.359 µM.

Question: And the TGI [54]?
Answer: The TGI was 4.22 µM.

Question: What about the TGI [55] of the same compound?
Answer: Its TGI is 9.62 µM.

Question: And the TGI [56]?
Answer: The TGI was 3.31 µM.

Question: What about the TGI [57] of the same compound?
Answer: The TGI was 0.352 µM.

Question: What about the TGI [58] of the same compound?
Answer: The TGI was 2.86 µM.

Question: For `COC(=O)[C@H]1ON2O[C@@H](O[C@H]3CCCC[C@@H]3C(C)(C)c3ccccc3)C[C@@H]3CC[C@H]1[C@@]32C`, which TGI [1] is on record?
Answer: Its TGI is > 100 µM.

Question: And the TGI [59]?
Answer: The TGI was > 100 µM.

Question: And the TGI [2]?
Answer: The TGI was > 100 µM.

Question: And the TGI [3]?
Answer: The TGI was > 100 µM.

Question: And the TGI [4]?
Answer: The TGI was > 100 µM.

Question: And the TGI [5]?
Answer: Its TGI is > 100 µM.

Question: What about the TGI [9] of the same compound?
Answer: The TGI was > 100 µM.

Question: And the TGI [10]?
Answer: Its TGI is > 100 µM.

Question: And the TGI [11]?
Answer: Its TGI is > 100 µM.

Question: What about the TGI [13] of the same compound?
Answer: Its TGI is > 100 µM.

Question: And the TGI [14]?
Answer: The TGI was > 100 µM.

Question: And the TGI [15]?
Answer: The TGI was > 100 µM.

Question: What about the TGI [16] of the same compound?
Answer: Its TGI is > 100 µM.

Question: And the TGI [17]?
Answer: Its TGI is > 100 µM.

Question: What about the TGI [19] of the same compound?
Answer: Its TGI is > 100 µM.

Question: What about the TGI [20] of the same compound?
Answer: The TGI was > 100 µM.

Question: What about the TGI [21] of the same compound?
Answer: The TGI was > 100 µM.

Question: What about the TGI [22] of the same compound?
Answer: Its TGI is > 100 µM.

Question: And the TGI [23]?
Answer: The TGI was > 100 µM.

Question: What about the TGI [24] of the same compound?
Answer: Its TGI is > 100 µM.

Question: And the TGI [25]?
Answer: Its TGI is > 100 µM.

Question: And the TGI [27]?
Answer: The TGI was > 100 µM.

Question: What about the TGI [28] of the same compound?
Answer: Its TGI is > 100 µM.

Question: And the TGI [29]?
Answer: Its TGI is > 100 µM.

Question: And the TGI [32]?
Answer: The TGI was > 100 µM.

Question: What about the TGI [33] of the same compound?
Answer: The TGI was > 100 µM.

Question: What about the TGI [34] of the same compound?
Answer: The TGI was > 100 µM.

Question: What about the TGI [35] of the same compound?
Answer: The TGI was > 100 µM.

Question: And the TGI [36]?
Answer: Its TGI is > 100 µM.

Question: And the TGI [37]?
Answer: Its TGI is > 100 µM.

Question: And the TGI [38]?
Answer: The TGI was > 100 µM.

Question: And the TGI [39]?
Answer: Its TGI is > 100 µM.

Question: And the TGI [40]?
Answer: The TGI was > 100 µM.

Question: And the TGI [41]?
Answer: The TGI was > 100 µM.

Question: And the TGI [42]?
Answer: Its TGI is > 100 µM.

Question: And the TGI [43]?
Answer: The TGI was > 100 µM.

Question: And the TGI [44]?
Answer: Its TGI is > 100 µM.

Question: And the TGI [45]?
Answer: Its TGI is > 100 µM.

Question: And the TGI [46]?
Answer: The TGI was > 100 µM.

Question: And the TGI [47]?
Answer: Its TGI is > 100 µM.

Question: And the TGI [48]?
Answer: Its TGI is > 100 µM.

Question: And the TGI [50]?
Answer: Its TGI is > 100 µM.

Question: What about the TGI [51] of the same compound?
Answer: The TGI was > 100 µM.

Question: What about the TGI [52] of the same compound?
Answer: Its TGI is > 100 µM.

Question: And the TGI [53]?
Answer: Its TGI is > 100 µM.

Question: And the TGI [54]?
Answer: Its TGI is > 100 µM.

Question: What about the TGI [55] of the same compound?
Answer: The TGI was > 100 µM.

Question: What about the TGI [56] of the same compound?
Answer: The TGI was > 100 µM.

Question: And the TGI [57]?
Answer: Its TGI is > 100 µM.

Question: What about the TGI [58] of the same compound?
Answer: The TGI was > 100 µM.
